The text below walks through data of patent US20050222146A1, “N-substituted-n-sulfonylaminocyclopropane compounds and pharmaceutical use thereof” (priority 2003, published 2005).

A value given as a limit tells only on which side of the number the result lay.

For one experiment, the target named is T1, aggrecanase-1 (Homo sapiens, UniProt O75173).
T1 sequence (O75173 213-837): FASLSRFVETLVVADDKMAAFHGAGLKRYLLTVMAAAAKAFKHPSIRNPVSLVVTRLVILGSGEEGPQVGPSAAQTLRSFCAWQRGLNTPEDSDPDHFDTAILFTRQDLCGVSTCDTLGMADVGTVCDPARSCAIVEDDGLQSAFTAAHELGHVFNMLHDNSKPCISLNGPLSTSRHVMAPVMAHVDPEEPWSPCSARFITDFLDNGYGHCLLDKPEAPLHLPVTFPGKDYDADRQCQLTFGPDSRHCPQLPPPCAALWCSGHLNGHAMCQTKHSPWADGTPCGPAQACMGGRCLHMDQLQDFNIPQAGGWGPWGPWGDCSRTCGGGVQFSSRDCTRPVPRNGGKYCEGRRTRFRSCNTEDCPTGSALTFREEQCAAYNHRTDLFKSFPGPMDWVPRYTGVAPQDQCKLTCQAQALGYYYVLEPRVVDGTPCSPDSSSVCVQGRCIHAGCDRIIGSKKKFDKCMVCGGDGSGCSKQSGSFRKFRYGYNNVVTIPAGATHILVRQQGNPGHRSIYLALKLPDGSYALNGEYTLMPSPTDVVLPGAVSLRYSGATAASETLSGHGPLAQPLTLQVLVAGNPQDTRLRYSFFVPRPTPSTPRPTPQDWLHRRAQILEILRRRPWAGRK
In words: Aggrecanase-1 inhibitory action, Particle Assay (GAG release from aggrecan-containing polyacrylamide particles). In kind it is biochemical. As to conditions: 37° C. for 15 hr, read-out: Experimental Example 1 IC50 AG1. In short, it runs like this: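 IC50 (μM) derived from % inhibition, referenced to enzyme-free and inhibitor-free wells, of GAG release read as 1,9-dimethylmethylene blue absorbance at 595 nm (chondroitin sulfate standard). Substrate: aggrecan-bearing polyacrylamide particles, exposed to enzyme plus compound in Tris-HCl for 15 hr at 37 °C.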

The target of another experiment is T2, MMP-1 (Homo sapiens, UniProt P03956).
T2 sequence (P03956 100-469): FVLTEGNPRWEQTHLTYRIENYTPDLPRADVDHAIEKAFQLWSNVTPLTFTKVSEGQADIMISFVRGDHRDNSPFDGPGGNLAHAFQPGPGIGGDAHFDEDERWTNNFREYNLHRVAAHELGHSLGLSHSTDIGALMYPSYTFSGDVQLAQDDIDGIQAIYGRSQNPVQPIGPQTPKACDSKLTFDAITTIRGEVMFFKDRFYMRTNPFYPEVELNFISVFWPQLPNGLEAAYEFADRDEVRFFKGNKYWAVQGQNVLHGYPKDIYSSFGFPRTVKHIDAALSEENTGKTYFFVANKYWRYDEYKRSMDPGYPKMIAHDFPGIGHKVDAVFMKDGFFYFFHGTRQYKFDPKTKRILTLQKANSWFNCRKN
In words: MMP-1 inhibitory action, Type I collagen Activity Measurement kit (FITC-labeled collagen type I). As to conditions: 37° C. for 3 hr, read-out: Experimental Example 2 IC50 MMP1. In kind it is biochemical.

By IC50 is commonly meant the concentration needed to halve the response being measured.

With `O=C(O)c1cccc(CN([C@]2(C(=O)O)C[C@H]2c2cccc(NC(=O)c3cccnc3)c2)S(=O)(=O)c2ccc(-c3ccc(Cl)cc3)cc2)c1` (relative stereo) [Example 1-99, 3-{[((1R*, 2S*)-1-carboxy-2-{3-[(pyridin-3-carbonyl)-amino]-phenyl}-cyclopropyl)-(4′-chloro-biphenyl-4-sulfonyl)-amino]-methyl}-benzoic acid], the IC50 was less than 100 nM at aggrecanase-1 and no less than 10000 nM on MMP-1.
Regarding `O=C(O)c1cccc(CN([C@]2(C(=O)O)C[C@H]2c2cccc(OCCN3CCCC3)c2)S(=O)(=O)c2ccc(-c3ccc(Cl)cc3)cc2)c1` (relative stereo) [Example 1-100, 3-{[{(1R*,2S*)-1-carboxy-2-[3-(2-pyrrolidin-1-yl-ethoxy)-phenyl]-cyclopropyl}-(4′-chloro-biphenyl-4-sulfonyl)-amino]-methyl}-benzoic acid], the results for the IC50 on aggrecanase-1 and at MMP-1 were less than 1000 nM and no less than 10000 nM, respectively.
Consider `O=C(O)c1cccc(CN([C@]2(C(=O)O)C[C@H]2c2cccc(OCCN3CCOCC3)c2)S(=O)(=O)c2ccc(-c3ccc(Cl)cc3)cc2)c1` (relative stereo) [Example 1-101, 3-{[{(1R*,2S*)-1-carboxy-2-[3-(2-morpholin-4-yl-ethoxy)-phenyl]-cyclopropyl}-(4′-chloro-biphenyl-4-sulfonyl)-amino]-methyl}-benzoic acid], for which the IC50 on aggrecanase-1 was less than 1000 nM; at MMP-1 it was no less than 10000 nM.
For the compound `CNC(=O)c1cnn(CCN([C@]2(C(=O)O)C[C@H]2c2ccccc2)S(=O)(=O)c2ccc(-c3ccc(Cl)cc3)cc2)c1` (relative stereo) [Example 1-106, (1R*,2S*)—{(4′-chloro-biphenyl-4-sulfonyl)-[2-(4-methylcarbamoyl-pyrazol-1-yl)-ethyl]-amino}-2-phenyl-cyclopropanecarboxylic acid], the values for the IC50 on aggrecanase-1 and on MMP-1 were less than 1000 nM and no less than 1000 nM, respectively.
Taken in the same sequence, the figures for `CC(C)(O)C(=O)NCCN([C@]1(C(=O)O)C[C@H]1c1ccccc1)S(=O)(=O)c1ccc(-c2ccc(Cl)cc2)cc1` (relative stereo) [Example 1-107, (1R*,2S*)-1-{(4′-chloro-biphenyl-4-sulfonyl)-[2-(2-hydroxy-2-methyl-propionylamino)-ethyl]-amino}-2-phenyl-cyclopropanecarboxylic acid] were less than 1000 nM and no less than 1000 nM.
For `O=C(O)c1cccc(CN([C@]2(C(=O)O)C[C@H]2c2cccc(OCCn3cccn3)c2)S(=O)(=O)c2ccc(-c3ccc(Cl)cc3)cc2)c1` (relative stereo) [Example 1-108, 3-{[{(1R*,2S*)-1-carboxy-2-[3-(2-pyrazol-1-yl-ethoxy)-phenyl]-cyclopropyl}-(4′-chloro-biphenyl-4-sulfonyl)-amino]-methyl}-benzoic acid] the same measures were less than 1000 nM and no less than 10000 nM.
As to `O=C(O)[C@@]1(N(CCNc2nnn[nH]2)S(=O)(=O)c2ccc(-c3ccc(Cl)cc3)cc2)C[C@H]1c1cccc(Oc2ccccc2)c1` (relative stereo) [Example 1-109, (1R*,2S*)-1-{(4′-chloro-biphenyl-4-sulfonyl)-[2-(1H-tetrazol-5-ylamino)-ethyl]-amino}-2-(3-phenoxy-phenyl)-cyclopropanecarboxylic acid], the values for the IC50 on aggrecanase-1 and on MMP-1 were less than 100 nM and no less than 10000 nM, respectively.
Taken in the same sequence, the figures for `O=C(O)[C@@]1(N(CCCNc2nn[nH]n2)S(=O)(=O)c2ccc(-c3ccc(Cl)cc3)cc2)C[C@H]1c1ccccc1` (relative stereo) [Example 1-110, (1R*,2S*)-1-{(4′-chloro-biphenyl-4-sulfonyl)-[3-(2H-tetrazol-5-ylamino)-propyl]-amino}-2-phenyl-cyclopropanecarboxylic acid] were less than 1000 nM and no less than 10000 nM.
Taken in the same sequence, the figures for `COC(=O)c1cn(CCN([C@]2(C(=O)O)C[C@H]2c2ccccc2)S(=O)(=O)c2ccc(-c3ccc(Cl)cc3)cc2)cn1` (relative stereo) [Example 1-112, 1-{2-[((1R*,2S*)-1-carboxy-2-phenyl-cyclopropyl)-(4′-chloro-biphenyl-4-sulfonyl)-amino]-ethyl}-1H-imidazole-4-carboxylic acid methyl ester] were less than 1000 nM and no less than 10000 nM.
Taken in the same sequence, the figures for `CNC(=O)c1cn(CCN([C@]2(C(=O)O)C[C@H]2c2ccccc2)S(=O)(=O)c2ccc(-c3ccc(Cl)cc3)cc2)cn1` (relative stereo) [Example 1-113, (R*,2S*)-1-{(4′-chloro-biphenyl-4-sulfonyl)-[2-(4-methylcarbamoyl-imidazol-1-yl)-ethyl]-amino}-2-phenyl-cyclopropanecarboxylic acid] were less than 100 nM and no less than 10000 nM.
Regarding `O=C(O)[C@@]1(N(CCO)S(=O)(=O)c2ccc(-c3ccc(Cl)cc3)cc2)C[C@H]1c1cccc(Oc2ccccc2)c1` (relative stereo) [Example 1-114, (1R*,2S*)-1-[(4′-chloro-biphenyl-4-sulfonyl)-(2-hydroxy-ethyl)-amino]-2-(3-phenoxy-phenyl)-cyclopropanecarboxylic acid], the IC50 on aggrecanase-1 is less than 1000 nM; at MMP-1, no less than 10000 nM.
Taken in the same sequence, the figures for `O=C(O)c1cccc(CN([C@]2(C(=O)O)C[C@H]2c2ccccc2)S(=O)(=O)N2CCN(c3ccc(Cl)cc3)CC2)c1` (relative stereo) [Example 1-115, 3-({((1R*,2S*)-1-carboxy-2-phenyl-cyclopropyl)-[4-(4-chloro-phenyl)-piperazine-1-sulfonyl]-amino}-methyl)-benzoic acid] were less than 1000 nM and no less than 10000 nM.
For `O=C(O)[C@]12[C@H](CCN1S(=O)(=O)c1ccc(-c3ccc(Cl)cc3)cc1)[C@H]2c1ccccc1` (relative stereo) [Example 2-02, (1R*, 5R*,6S*)-2-(4′-chlorobiphenyl-4-sulfonyl)-6-phenyl-2-aza-bicyclo[3.1.0]hexane-1-carboxylic acid] the same measures were no less than 10000 nM and no less than 10000 nM.
For `O=C(O)CN(C1(C(=O)O)C[C@H]1Cc1ccccc1)S(=O)(=O)c1ccc(-c2ccc(Cl)cc2)cc1` (stereo in doubt) [Example 1-3, (1S,2R)-2-benzyl-1-[carboxymethyl-(4′-chloro-biphenyl-4-sulfonyl)-amino]-cyclopropanecarboxylic acid] the same measures were less than 1000 nM and no less than 10000 nM.
Regarding `COc1cccc([C@@H]2CC2(C(=O)O)N(CC(=O)O)S(=O)(=O)c2ccc(-c3ccc(Cl)cc3)cc2)c1` (stereo in doubt) [Example 1-21, (1R*,2S)-1-[carboxymethyl-(4′-chloro-biphenyl-4-sulfonyl)-amino]-2-(3-methoxy-phenyl)-cyclopropanecarboxylic acid], the values for the IC50 at aggrecanase-1 and at MMP-1 were less than 1000 nM and no less than 10000 nM, respectively.
Taken in the same sequence, the figures for `NC(=O)CN(C1(C(=O)O)C[C@H]1c1ccccc1)S(=O)(=O)c1ccc(-c2ccc(Cl)cc2)cc1` (stereo in doubt) [Example 1-36, (1R*,2S)-1-[carbamoylmethyl-(4′-chloro-biphenyl-4-sulfonyl)-amino]-2-phenyl-cyclopropanecarboxylic acid] were less than 1000 nM and no less than 10000 nM.
For `O=C(O)CN([C@]1(C(=O)O)C[C@H]1c1ccccc1)S(=O)(=O)c1ccc(-c2ccc(Cl)cc2)cc1` [Example 1-2, (1R,2S)-1-[carboxymethyl-(4′-chloro-biphenyl-4-sulfonyl)-amino]-2-phenyl-cyclopropanecarboxylic acid] the same measures were less than 100 nM and no less than 10000 nM.
For `O=C(O)CN(C1(C(=O)O)CC1c1cccc(OCc2ccccc2)c1)S(=O)(=O)c1ccc(-c2ccc(Cl)cc2)cc1` (stereo not shown) [Example 1-50] the same measures were less than 1000 nM and no less than 1000 nM.
In the case of `O=C(O)C1(N(Cc2noc(=O)[nH]2)S(=O)(=O)c2ccc(-c3ccc(Cl)cc3)cc2)CC1c1ccccc1` (stereo not drawn) [Example 1-64, (R*,2S*)-1-[(4′-chlorobiphenyl-4-sulfonyl)-(5-oxo-4,5-dihydro[1.2.4]oxadiazol-3-ylmethyl)-amino]-2-phenylcyclopropanecarboxylic acid], the IC50 is less than 100 nM on aggrecanase-1 and no less than 10000 nM at MMP-1.
With `O=C(O)c1cnn(CCN(C2(C(=O)O)CC2c2ccccc2)S(=O)(=O)c2ccc(-c3ccc(Cl)cc3)cc2)c1` (stereo not drawn) [Example 1-79, 1-{2-[(1R*,2S*)-1-carboxy-2-phenyl-cyclopropyl)-(4′-chloro-biphenyl-4-sulfonyl)-amino]-ethyl}-1H-pyrazol-4-carboxylic acid], the results for the IC50 at aggrecanase-1 and on MMP-1 were less than 100 nM and no less than 10000 nM, respectively.
